For data set [1], the target named is T1, Kinesin-like protein KIF11 (Homo sapiens, UniProt P52732).
T1 sequence (P52732 whole entry): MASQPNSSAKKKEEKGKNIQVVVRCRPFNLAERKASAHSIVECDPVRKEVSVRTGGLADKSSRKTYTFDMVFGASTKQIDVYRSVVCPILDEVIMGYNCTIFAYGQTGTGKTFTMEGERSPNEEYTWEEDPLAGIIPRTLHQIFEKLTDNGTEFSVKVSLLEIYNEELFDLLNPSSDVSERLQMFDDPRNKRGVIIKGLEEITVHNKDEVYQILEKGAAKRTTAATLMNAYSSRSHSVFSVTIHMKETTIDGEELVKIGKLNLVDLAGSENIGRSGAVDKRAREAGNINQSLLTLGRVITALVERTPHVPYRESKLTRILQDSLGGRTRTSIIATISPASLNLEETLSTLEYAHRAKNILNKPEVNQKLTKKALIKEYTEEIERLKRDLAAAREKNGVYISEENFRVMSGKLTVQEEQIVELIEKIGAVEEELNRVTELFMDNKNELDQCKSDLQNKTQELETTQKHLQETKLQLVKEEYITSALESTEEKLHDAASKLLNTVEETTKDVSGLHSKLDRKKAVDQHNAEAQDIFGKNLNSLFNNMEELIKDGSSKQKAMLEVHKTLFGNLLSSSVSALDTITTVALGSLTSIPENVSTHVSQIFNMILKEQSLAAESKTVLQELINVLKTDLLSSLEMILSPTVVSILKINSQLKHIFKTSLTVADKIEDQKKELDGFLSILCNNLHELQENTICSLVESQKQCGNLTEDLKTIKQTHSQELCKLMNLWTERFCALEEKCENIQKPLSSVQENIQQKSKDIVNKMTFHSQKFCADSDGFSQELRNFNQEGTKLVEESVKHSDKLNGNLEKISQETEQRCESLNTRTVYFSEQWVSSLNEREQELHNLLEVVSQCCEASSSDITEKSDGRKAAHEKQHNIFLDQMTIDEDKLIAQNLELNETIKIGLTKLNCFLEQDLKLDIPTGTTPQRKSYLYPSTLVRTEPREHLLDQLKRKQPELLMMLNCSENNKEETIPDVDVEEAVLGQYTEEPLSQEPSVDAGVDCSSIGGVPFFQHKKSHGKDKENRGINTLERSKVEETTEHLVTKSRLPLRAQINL
In words: Inhibition of human Eg5 basal ATPase activity.

Data set [2] has as its target T1, Kinesin-like protein KIF11. In words: Inhibition of human Eg5 assessed as inhibition of microtubule-induced ATPase activity.
The target of data set [3] is T1, Kinesin-like protein KIF11. Put plainly: Inhibition of human recombinant Eg5 ATPase activity expressed in Escherichia coli after 30 mins by malachite green-based spectrophotometric analysis.
Data set [4] addresses T2, Kinesin-like protein KIF11 (Homo sapiens) (UniProt P52732).
T2 sequence (whole entry): T1 sequence (P52732 whole entry)
In words: Ratio of monastrol IC50 to compound IC50 for Eg5 (unknown origin).

Data set [5] has as its system Homo sapiens. In words: Toxicity in prostate cancer patient administered once every 3 weeks. Type of data set: organism-based, Prostate gland. The following applies: in vivo, 504 h.
Data set [6] in a line: Antitumor activity against breast cancer in patients at 12 mg/m2 administered as 1 hr infusion on day 1 and 15 measured after 28 days. Type of data set: functional, Homo sapiens, Breast cancer cell.
The subject of data set [7] is Homo sapiens. Put plainly: Toxicity in breast cancer patient administered as infusion for 1 hr on day 1 and 15 measured after 28 days. It is filed as organism-based. The following applies: in vivo, iv, 672 h.
Data set [8] can be described thus: Half life in solid tumor patient at 7 mg/m2 administered as infusion for 1 hr per week for 3 weeks. As to conditions: human, in vivo, iv. It is filed as ADME, organism-based.
The target of data set [9] is T1, Kinesin-like protein KIF11. Put plainly: Inhibition of Eg5 in human HCT116 cells assessed as inhibition of microtubule-induced ATPase activity after 18 hrs. It is filed as cell-based, HCT-116.
Data set [10] addresses T1, Kinesin-like protein KIF11. In words: Inhibition of Eg5 (unknown origin).
Data set [11] can be described thus: Half life in cancer patient at 30 mg, iv administered as infusion for 1 hr on days 1, 8 and 15 measured after 28 days. As to conditions: human, in vivo.
For data set [12], the system named is Homo sapiens. In words: Toxicity in acute myeloid leukemia patient administered as infusion for 1 hr on 3 consecutive days measured after 2 weeks. Type of data set: organism-based. The following applies: in vivo, iv, 336 h.
The test system of data set [13] is Homo sapiens. Put plainly: Toxicity in iv dosed cancer patient administered as infusion for 1 hr on days 1, 8 and 15 measured after 28 days. Type of data set: organism-based. As to conditions: in vivo, 672 h.
The next data set is described as follows: clinical. The following applies: human, in vivo, iv, 16 mg/day.
Data set [14] addresses T1, Kinesin-like protein KIF11. Put plainly: Inhibition of Eg5 basal ATPase activity (unknown origin).
The target in data set [15] is T1, Kinesin-like protein KIF11. Put plainly: Inhibition of Eg5 assessed as inhibition of microtubule-induced ATPase activity (unknown origin).
The test system of data set [16] is Homo sapiens. In words: Toxicity in cancer patient administered as infusion for 1 hr every 21 days. It is filed as organism-based. The following applies: in vivo, iv.
Data set [17] has as its target T1, Kinesin-like protein KIF11. In words: Inhibition of human His-tagged Eg5 (1 to 368 amino acid residues) basal ATPase activity.
A short description of data set [18]: Antiproliferative activity against human NCI60 cells.

Description for clinical: Half life in acute myeloid leukemia patient at 16 mg/day administered as infusion for 1 hr on 3 consecutive days measured after 2 weeks

Take `CC(C)(O)[C@@H]1C[C@@H](O)[C@]2(C)[C@H](CC[C@@]3(C)[C@H]2CC[C@H]2Cc4c([nH]c5ccccc45)[C@@]23C)O1` [TERPENDOLE E]: the IC50 in [1] and in [2] was 23 µM in each case. As for `CC1=C(C(=O)Nc2ccc(Cl)cc2)C(c2ccccc2)C2=C(CC(C)(C)CC2=O)N1` (centres undefined), the IC50 (as a rule, the concentration at which inhibition is half-maximal) in data set [3] was found to be 0.1 µM. On to `Cc1ccc(C(=O)N2CCc3cc4c(cc3C2c2cccc(O)c2)OCO4)cc1` (centres undefined), for which the IC50 in data set [3] was determined as 0.06 µM. Moreover, the Ratio IC50 in data set [4] is more than 100.

`O=C1CCCC2=C1[C@H](c1cccc(O)c1)NC(=S)N2`: the Ratio IC50 in [4] turned out to be 10. For `CS(=O)(=O)O.Cc1ccc(C(=O)N(CCCN)[C@@H](c2nc3cc(Cl)ccc3c(=O)n2Cc2ccccc2)C(C)C)cc1` [ISPINESIB MESYLATE], the MTD with Homo sapiens [5] is given as 18 mg/m2; in the data set with Homo sapiens [7] it was 12 mg/m2. The Activity in data set [6] is reported as 9%. Further, the half-life (as a rule, the time in which the quantity being followed falls by half) in data set [8] was 33 h.

With `O=C(c1ccc(O)cc1)N1CCc2cc3c(cc2C1c1cccc(O)c1)OCO3` (centres undefined), the IC50 in data set [3] was 0.04 µM. In addition, the Ratio IC50 in data set [4] is more than 100. `CC(=O)NC1=NN(C(C)=O)C(C)(c2ccccc2)S1` (centres undefined): the IC50 in [9] amounted to 1.3 µM. `O=C1[C@@H]2Cc3c([nH]c4ccccc34)[C@@H](c3cccc(O)c3)N2C(=O)N1Cc1ccccc1`: half-maximal inhibition in data set [10] (IC50) was put at 0.65 µM. `CON(C)C(=O)N1N=C(c2cc(F)ccc2F)S[C@@]1(CCCN)c1ccccc1` [FILANESIB] showed an IC50 in data set [10] of 0.006 µM. `Cc1cc2c(C(C)C)c(O)c(O)c(C=O)c2c(O)c1-c1c(C)cc2c(C(C)C)c(O)c(O)c(C=O)c2c1O` [GOSSYPOL]: the IC50 in [3] was found to be 10.8 µM. For `Cc1ccc(C(=O)N(CCCN)C(c2nc3snc(C)c3c(=O)n2Cc2ccccc2)C(C)C)cc1` (single isomer, unassigned; (+)) [AZD-4877], the half-life at 672 h in [11] was 16 h. In addition, the MTD in the data set on Homo sapiens [12] worked out at 16 mg/day; in the data set on Homo sapiens [13], 30 mg. For the same molecule, the half-life at 336 h in “clinical” is 17 h. Consider `CC1(C)CCC[C@]2(C)O[C@H]3CC[C@@]4(C)[C@@H](CC[C@]5(C)[C@@H]4CC[C@]4(C)c6c(OS(=O)(=O)O)ccc(OS(=O)(=O)O)c6C[C@@H]54)[C@]3(C)CC[C@@H]12` [ADOCIASULFATE-2], for which the IC50 was 3.5 µM in data set [14] and 5.3 µM in [15]. The molecule `Cc1ccc(C(=O)N(CCCN)[C@@H](c2oc3cc(Cl)ccc3c(=O)c2Cc2ccccc2)C(C)C)cc1` [SB-743921] gave an MTD in the data set on Homo sapiens [16] of 4 mg/m2.

For `CCOC(=O)C1=C(C)NC(=S)NC1c1cccc(O)c1` (centres undefined) [MONASTROL], half-maximal inhibition in data set [10] (IC50) was put at 30 µM. Regarding `NCCC(=O)N1CCc2cc3c(cc2C1c1cccc(O)c1)OCO3` (centres undefined), the IC50 in data set [3] was determined as 0.02 µM. Moreover, the Ratio IC50 in [4] was more than 100.

Regarding `O=C1CCCC2=C1[C@H](c1cc(O)ccc1Br)NC(=S)N2`, 0.35 µM corresponded to half-maximal inhibition in data set [17] (IC50). Molecule `CCC(c1nc2ccccc2n1Cc1ccccc1)N(CCCN(C)C)C(=O)c1ccc(Br)cc1` (centres undefined) had an IC50 in [10] of 0.04 µM. Take `N[C@@H](CSC(c1ccccc1)(c1ccccc1)c1ccccc1)C(=O)O` [S-TRITYL-L-CYSTEINE]: the GI50 (usually the concentration giving 50% growth inhibition) in data set [18] came to 1.3 µM.
